# Measured values taken from patent US20120034608A1, “MICRORNA AS A BIOMARKER OF PANCREATIC ISLET BETA-CELL ENGAGEMENT” (Merck Sharp & Dohme Corp., priority 2009, published 2012).
# Tests used:
# Assay type in all cases: cell-based, rat
# [1] = tested on: INS-1 832/3 cells; assay: TAQMAN real-time quantitative RT-PCR of miRNA expression in INS-1 832/3 cells
# Description: (§1) INS-1 832/3 and 832/13 cells were maintained in RPMI 1640 with 10% FBS and 11 mM glucose. For GLP-1 treatment, GLP-1 (7-37) amide (ABCHEM) was added in the media in the presence of 16 mM glucose for 24 hours. Total RNA was extracted with TRIZOL as in Example 1. Rat islet isolation and treatment was as follows. Pancreatic islets of Langerhans were isolated from the pancreas of normal Sprague-Dawley rats (Charles River, Ind.) by collagenase digestion and discontinuous Ficoll gradient separation (15). Islets were cultured for 2 hours in RPMI 1640 medium with 11 mM glucose for recovery from the isolation process. Then 100-200 islets were treated with 50 nM GLP-1 in the media with 11 mM glucose for 24 hours. RNA was extracted with TRIZOL as in Example 1 for quantification of microRNA species.
# Fluorogenic TAQMAN detector probes specific for miR-132 (Cat# TM457), miR-212 (Cat# TM515), miR-375 (Cat#TM564), and miR-217 (Cat#1133) were purchased from Applied Biosystems (Foster City, Calif.). The TAQMAN RT-PCR reactions were performed according to the manufacturer's instructions.
# Relative miRNA levels for the miRNAs of interest were determined by real-time reverse transcription reaction using the ABI PRISM 7900 Sequence Detection System from Applied Biosystems (Foster City, Calif.) according to the manufacturer's protocol. Briefly, 10 ng of total RNA was mixed with 1 U MultiScribe Reverse Transcriptase, 0.25 U RNase Inhibitor, 3 μL hairpin-looped miRNA-specific RT primer, 1 mM dNTPs and 1× Reverse Transcription Buffer in a total volume of 15 μL. The mixture was incubated at 16° C. for 30 minutes, 42° C. for another 30 minutes, and the reaction was stopped by heating to 85° C. for 5 minutes. Real time PCR reaction was set up in 20 μL volume with 1.33 μL first strand cDNA, 1× TAQMAN MicroRNA Assay Mix and 1× TAQMAN Universal PCR Master Mix. After activation of the AMPLITAQ Gold DNA polymerase at 95° C. for 10 minutes, 40 cycles of two-step PCR were run (95° C. for 15 seconds and 60° C. for 60 seconds). Data were collected and analyzed with SDS v.2.2.2 software (Applied Biosystems). 4.5S RNA or U6 probe (Applied Biosystems) was used as a reference to determine the relative abundance of each miRNA in different samples. TAQMAN RT-PCR was performed according the manufacturer's instructions.
# The absolute miRNA levels were determined by reverse transcription reactions in GeneAmp PCR system 9700 followed by amplification using the ABI PRISM 7900HT Sequence Detection System from Applied Biosystems (Foster City, Calif.) through 40 cycles. 4.5S RNA (H) probe (Cat#TM1716) or U6 (Cat#TM1973) was used as reference to determine the relative abundance of each miRNA in different samples. The induction of miR-132 and miR-212 expression by GLP-1 started around 4 hour post-GLP-1 treatment, peaked at 24 hours and was sustained up to 48 hours (FIG. 2).
# [2] = tested on: INS-1 832/13 cells; assay: TAQMAN analysis of miRNA expression in INS-1 832/13 cells; conditions: 24 hours post-GLP-1 treatment
# Description: as §1
# Fluorogenic TAQMAN detector probes specific for miR-132 (Cat# TM457), miR-212 (Cat# TM515), miR-375 (Cat#TM564), and miR-217 (Cat#1133) were purchased from Applied Biosystems (Foster City, Calif.). […]
# Relative miRNA levels for the miRNAs of interest were determined by real-time reverse transcription reaction using the ABI PRISM 7900 Sequence Detection System from Applied Biosystems (Foster City, Calif.) according to the manufacturer's protocol. […] Data were collected and analyzed with SDS v.2.2.2 software (Applied Biosystems). […]
# [3] = tested on: INS-1 832/3 cells; assay: miRNA expression profiling of GLP-1 treated INS-1 832/3 cells (SYBR green qPCR); conditions: 50 nM GLP-1 for 24 hours, 16 mM glucose
# Description: Glucagon like peptide-1 (GLP-1) exerts pleiotropic effects on pancreatic β-cell function. GLP-1 potentiates glucose-dependent insulin secretion (GDIS) in pancreatic β-cells. Chronic administration of GLP-1 also promotes insulin synthesis as well as β-cell proliferation and neogenesis, at least in animal models. The detailed underlying mechanism remains to be fully understood. […] The expression levels of 250 microRNAs in INS-1 832/3 cell cultured in the presence or absence of 50 nM GLP-1 for 24 hours were compared using quantitative reverse transcription polymerase chain reaction (RT-PCR) method.
# For GLP-1 treatment, GLP-1 (7-37) amide (ABCHEM) was added in the media in the presence of 16 mM glucose for 24 hours.
# For microRNA profiling, total RNA was extracted from INS-1 832/3 cells with TRIZOL reagent (Invitrogen, Carlsbad, Calif.). A total of 250 miRNA species were determined by SYBR green quantitative PCR (qPCR) method at Rossetta Inpharmatics (Seattle, Wash.). Quantitative PCR is a method used to detect relative or absolute gene expression level. All qPCR involves the use of fluorescence to detect the threshold cycle (Ct) during PCR when the level of fluorescence gives signal over the background and is in the linear portion of the amplified curve. […] In this example, the Ct value data was calculated into copy number per 10 pg total RNA using the standard curve method. […]
# [4] = 50 nM GLP-1, 50 nM Exendin-4, 5 μM IBMX, 1 μM Foskolin (FIG. 6A)
substance,measurement,setting,value
GLP-1 (7-37) amide,miR-132 expression,[1]; [4],significantly increased
same,miR-212 expression,[1]; [4],significantly increased
same,miR-375 expression,[1]; [4],remained unchanged
same,induction of miR-132 and miR-212 expression sustained up to,[1]; 50 nM GLP-1 time course,up to 48 hours
same,peak of induction of miR-132 and miR-212 expression,[1]; 50 nM GLP-1 time course,24 h
same,"start of induction of miR-132 and miR-212 expression, time post-GLP-1 treatment",[1]; 50 nM GLP-1 time course,around 4 hour
same,induction of miR-132 and miR-212 (subsequent TAQMAN analyses),[1]; GLP-1 treatment,confirmed the induction
same,induction of miR-217 (subsequent TAQMAN analyses),[1]; GLP-1 treatment,not miR-217
same,increase of miR-132 expression in response to GLP-1,[2],not observed
same,increase of miR-212 expression in response to GLP-1,[2],not observed
same,"expression of miR-375, miR-9 and miR-124a",[3],no significant changes
